Where a SMILES comes first, the peptide text is derived from it.
Tests used:
[1] = test system: colon cancer cell line (SW480); type: cell-based
Description: (§1) Peptides inhibiting β-catenin cause decreased cell viability in a colon cancer cell line (SW480) and endometriosis lesions excised from a disease animal model. Peptides from libraries described herein are characterized in their effect on cell viability, as measured using a luminescent cell viability assay (Cell Titer-Glo®, Promega, Madison, WI) and expressed as IC50 in Table 5. Peptide inhibitors were tested for their ability to inhibit cellular proliferation across 2 different β-catenin expressing pathogenic cell lines: a colon cancer cell line (SW480) and/or mouse EMS lesion cells derived from mouse model of disease. Both cells lines are naturally known to express high levels of β-catenin. Cell lines were incubated with varying concentrations of peptide concentration and assessed for viability after day 5 and 7 days. The CellTiter-Glo® Luminescent Cell Viability Assay (Promega) is used to detect viable cells. IC50 values are graphed and calculated using Prism software (GraphPad) based on the cell viability readouts. IC50 is used to assess inhibition of cell proliferation by peptide concentration and is used to calculate the inhibitory effect of each peptide across each line. The results are used to assess the therapeutic potency of the peptides. In the SW480 cell line, peptide inhibitors from Family 1 (SEQ ID NO:264) and Family 2 (SEQ ID NO:396) were added daily to the cell growth medium. After 7 days, cell viability was assessed with the Cell-Titer Glo kit (Promega, Madison, WI). […] IC50 was calculated for peptides based on the concentration at which 50% viability was observed (Table 5).

mouse EMS lesion cells = type: cell-based
Description: as §1

β-catenin = target: T1, β-catenin (Homo sapiens, UniProt P35222); test: KD50 measurement using competitive fluorescence polarization (FP) with labelled TCF4; type: binding; details: fluorescence polarization, β-catenin; for Kd: read-out: β-Cat FP KD
T1 sequence (P35222 1-781): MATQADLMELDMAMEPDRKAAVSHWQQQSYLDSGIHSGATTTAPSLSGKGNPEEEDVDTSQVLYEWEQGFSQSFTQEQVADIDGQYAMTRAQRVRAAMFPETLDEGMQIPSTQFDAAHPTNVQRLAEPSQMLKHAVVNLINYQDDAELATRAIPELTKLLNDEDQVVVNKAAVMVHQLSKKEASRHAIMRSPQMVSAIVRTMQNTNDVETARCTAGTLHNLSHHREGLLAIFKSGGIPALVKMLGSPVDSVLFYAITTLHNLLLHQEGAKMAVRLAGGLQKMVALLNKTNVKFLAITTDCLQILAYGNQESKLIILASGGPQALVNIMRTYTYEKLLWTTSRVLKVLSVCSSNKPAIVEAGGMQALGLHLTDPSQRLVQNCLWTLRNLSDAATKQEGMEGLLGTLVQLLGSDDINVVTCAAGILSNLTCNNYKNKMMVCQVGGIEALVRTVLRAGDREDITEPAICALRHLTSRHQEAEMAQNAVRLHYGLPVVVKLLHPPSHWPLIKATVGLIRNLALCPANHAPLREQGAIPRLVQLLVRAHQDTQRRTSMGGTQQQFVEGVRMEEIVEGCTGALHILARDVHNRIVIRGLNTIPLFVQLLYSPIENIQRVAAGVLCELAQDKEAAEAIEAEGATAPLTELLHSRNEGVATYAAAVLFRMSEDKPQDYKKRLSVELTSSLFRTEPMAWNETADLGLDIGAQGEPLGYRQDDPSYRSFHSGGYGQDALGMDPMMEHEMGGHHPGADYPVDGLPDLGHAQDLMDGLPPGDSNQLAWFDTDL
In short: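 Tracer: labelled TCF4, 5 nM; protein 100 nM; RT incubation. Competitor dilution series 10 nM–30 uM. FP read ex 470 / em 520 nm. n = 3.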

[2] = target: Wnt-responsive promoter (TCF/LEF); test: Wnt-dependent luciferase reporter assay; type: cell-based, murine
In short: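 Murine 3T3 fibroblasts carrying a TCF/LEF-driven luciferase reporter, stimulated with Wnt3a in the presence of increasing peptide concentrations or vehicle. Luminescence inhibition gave EC50 values in uM.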

EMS lesion = details: across the subtypes of EMS; cited from earlier work
[3] = % Viability non-Wnt responsive cells

Molecule	IC50 [1] [µM]	IC50 (mouse EMS lesion cells) [µM]	β-Cat FP Hill slope (β-catenin)	Kd (β-catenin) [µM]	EC50 [2] [µM]	also measured
CC[C@@H]1NC(=O)[C@H]([C@@H](C)CC)NC(=O)[C@H](CC(C)C)NC(=O)[C@H](C2CCCCC2)NC(=O)[C@H](Cc2c[nH]c3ccccc23)NC(=O)[C@@H](NC(C)=O)CCCCNC(=O)C[C@@H](C(=O)O)NC(=O)[C@H](Cc2c[nH]c3ccccc23)NC(=O)[C@H](C)NC1=O [compound 262] (HELM PEPTIDE1{[ac].K.W.[O=C([C@@H](N[*:1])C1CCCCC1)[*:2]].L.I.[Abu].A.W.D}$PEPTIDE1,PEPTIDE1,2:R3-10:R3$$$V2.0)	5	26.3	3	0.4 to 1	–	–
CC[C@H](C)[C@@H]1NC(=O)[C@@H](NC(=O)[C@H](CCC(N)=O)NC(=O)[C@H](C)N(C)C(=O)[C@H](Cc2c[nH]c3ccccc23)NC(=O)CCC(=O)O)CCCCNC(=O)CC[C@@H](C(=O)N[C@@H](Cc2c[nH]cn2)C(=O)N[C@H](C(=O)N[C@@H](CCC(N)=O)C(=O)N[C@@H](CCCNC(=N)N)C(=O)N[C@H](C(=O)N[C@@H](Cc2c[nH]c3ccccc23)C(=O)NCC(N)=O)C(C)C)C2CCCCC2)NC(=O)[C@H](CC(=O)O)NC(=O)[C@H](CC(C)C)NC1=O [compound 405] (HELM PEPTIDE1{[O=C(O)CCC(=O)[*:2]].W.[meA].Q.K.I.L.D.E.H.[O=C([C@@H](N[*:1])C1CCCCC1)[*:2]].Q.R.V.W.G.[am]}$PEPTIDE1,PEPTIDE1,5:R3-9:R3$$$V2.0)	26.8	–	0.7	< 0.4	15 to 22.5	–
CC[C@H](C)[C@H](NC(=O)[C@H](CC(C)C)NC(=O)[C@H](Cc1ccccc1)NC(=O)[C@H](Cc1c[nH]c2ccccc12)NC(=O)[C@@H](N)CCSC)C(=O)N[C@@H](CS)C(=O)N[C@@H](Cc1ccccc1)C(=O)N[C@@H](Cc1c[nH]c2ccccc12)C(=O)NCC(=O)O [compound 42] (H-MWFLICFWG-OH)	–	–	0.96	< 0.4	< 7.5	% Viability non-Wnt responsive cells (non-Wnt responsive cells): 108.69%
CGP049090	–	–	–	–	–	EMS lesion progression (EMS lesion): successfully reversed
Lauroyl-NH-W-NMeA-QK*ILDE*H-Chg-E*DVWK*-NH2 (WAQKILDEHGEDVWK; HELM PEPTIDE1{[CCCCCCCCCCCC(=O)[*:2]].W.[meA].Q.K.I.L.D.E.H.[O=C([C@@H](N[*:1])C1CCCCC1)[*:2]].E.D.V.W.K.[am]}$PEPTIDE1,PEPTIDE1,12:R3-16:R3|PEPTIDE1,PEPTIDE1,5:R3-9:R3$$$V2.0; SMILES CCCCCCCCCCCC(=O)N[C@@H](Cc1c[nH]c2ccccc12)C(=O)N(C)[C@@H](C)C(=O)N[C@@H](CCC(N)=O)C(=O)N[C@H]1CCCCNC(=O)CC[C@@H](C(=O)N[C@@H](Cc2c[nH]cn2)C(=O)N[C@H](C(=O)N[C@H]2CCC(=O)NCCCC[C@@H](C(N)=O)NC(=O)[C@H](Cc3c[nH]c4ccccc34)NC(=O)[C@H](C(C)C)NC(=O)[C@H](CC(=O)O)NC2=O)C2CCCCC2)NC(=O)[C@H](CC(=O)O)NC(=O)[C@H](CC(C)C)NC(=O)[C@H]([C@@H](C)CC)NC1=O; listed as Homo sapiens) [SEQ ID NO: 465]	–	–	–	–	–	Cell growth / viability (mouse EMS lesion cells; mouse EMS lesion cells, peptide added daily 0.024-25 uM, 5 days): inhibited cell growth
CCCC[C@@H]1NC(=O)[C@@H](NC(C)=O)CCCCNC(=O)C[C@@H](C(=O)O)NC(=O)[C@H](Cc2c[nH]c3ccccc23)NC(=O)[C@H](C)NC(=O)[C@H](CC)NC(=O)[C@H]([C@@H](C)CC)NC(=O)[C@H](CC(C)C)NC(=O)[C@H](CC2CCCCC2)NC(=O)[C@H](Cc2c[nH]c3ccccc23)NC1=O [compound 215] (HELM PEPTIDE1{[ac].K.[Nle].W.[Cha].L.I.[Abu].A.W.D}$PEPTIDE1,PEPTIDE1,2:R3-11:R3$$$V2.0)	–	> 30	1.69	–	> 30	viability [3]: 106%
CC[C@H](C)[C@H](NC(=O)[C@H](CC(C)C)NC(=O)[C@@H](NC(=O)[C@H](Cc1c[nH]c2ccccc12)NC(=O)[C@@H](N)CCSC)[C@@H](C)CC)C(=O)N[C@@H](CO)C(=O)N[C@@H](Cc1ccccc1)C(=O)N[C@@H](Cc1c[nH]c2ccccc12)C(=O)NCC(=O)O [compound 43] (H-MWILISFWG-OH)	–	–	0.92	0.4 to 1	< 7.5	% Viability non-Wnt responsive cells (non-Wnt responsive cells): 98.97%
CCCCCCCCCCCCCCCC(=O)N[C@@H](Cc1c[nH]c2ccccc12)C(=O)N(C)[C@@H](Cc1c[nH]c2ccccc12)C(=O)N[C@@H](CCC(=O)O)C(=O)NC(C)(CO)C(=O)N[C@H](C(=O)N[C@@H](CC(C)C)C(=O)N[C@@H](CC(=O)O)C(=O)N[C@@H](CCC(=O)O)C(=O)N[C@@H](Cc1c[nH]cn1)C(=O)NC(C)(C(=O)N[C@@H](CCC(N)=O)C(=O)N[C@@H](CCCNC(=N)N)C(=O)N[C@H](C(=O)N[C@@H](Cc1c[nH]c2ccccc12)C(=O)NCC(=O)O)C(C)C)C(C)C)[C@@H](C)CC (single isomer, unassigned) [compound 396]	2.9	15	–	–	7.5 to 15	–
O=C(Nc1ccc([N+](=O)[O-])cc1Cl)c1cc(Cl)ccc1O [niclosamide]	–	–	–	–	–	EMS lesion progression (EMS lesion): successfully reversed
CCCCCCCCCCCC(=O)N[C@@H](Cc1c[nH]c2ccccc12)C(=O)N(C)[C@@H](C)C(=O)N[C@@H](CCC(N)=O)C(=O)N[C@H]1CCCCNC(=O)C[C@@H](C(=O)N[C@@H](Cc2c[nH]cn2)C(=O)N[C@H](C(=O)N[C@@H](CCC(N)=O)C(=O)N[C@@H](CCCNC(=N)N)C(=O)N[C@H](C(=O)N[C@@H](Cc2c[nH]c3ccccc23)C(=O)NCC(N)=O)C(C)C)C2CCCCC2)NC(=O)[C@H](CC(=O)O)NC(=O)[C@H](CC(C)C)NC(=O)[C@H]([C@@H](C)CC)NC1=O [compound 432] (HELM PEPTIDE1{[CCCCCCCCCCCC(=O)[*:2]].W.[meA].Q.K.I.L.D.D.H.[O=C([C@@H](N[*:1])C1CCCCC1)[*:2]].Q.R.V.W.G.[am]}$PEPTIDE1,PEPTIDE1,5:R3-9:R3$$$V2.0)	14.9	0.8	–	< 0.4	–	–
CC[C@@H]1NC(=O)[C@H]([C@@H](C)CC)NC(=O)[C@H](CC(C)C)NC(=O)[C@H](CC2CCCCC2)NC(=O)[C@H](Cc2c[nH]c3ccccc23)NC(=O)[C@@H](NC(C)=O)CCCCNC(=O)C[C@@H](C(=O)O)NC(=O)[C@H](Cc2c[nH]c3ccccc23)NC(=O)[C@H](C)NC1=O [compound 261] (HELM PEPTIDE1{[ac].K.W.[Cha].L.I.[Abu].A.W.D}$PEPTIDE1,PEPTIDE1,2:R3-10:R3$$$V2.0)	4	7.7	3	0.4 to 1	7.5 to 15	–
PKF 115-584	–	–	–	–	–	EMS lesion progression (EMS lesion): successfully reversed
CCCCCCCCCCCCCCCCCC(=O)N[C@@H](Cc1c[nH]c2ccccc12)C(=O)N(C)[C@@H](Cc1c[nH]c2ccccc12)C(=O)N[C@@H](CCC(=O)O)C(=O)NC(C)(CO)C(=O)N[C@H](C(=O)N[C@@H](CC(C)C)C(=O)N[C@@H](CC(=O)O)C(=O)N[C@@H](CCC(=O)O)C(=O)N[C@@H](Cc1c[nH]cn1)C(=O)NC(C)(C(=O)N[C@@H](CCC(N)=O)C(=O)N[C@@H](CCCNC(=N)N)C(=O)N[C@H](C(=O)N[C@@H](Cc1c[nH]c2ccccc12)C(=O)O)C(C)C)C(C)C)[C@@H](C)CC (single isomer, unassigned) [393/500]	1.7	5	–	> 30	–	–
